The text below walks through data of patent publication US12642791B2, “Inhibitors of lysyl oxidases” (UNIVERSITY OF SOUTH CAROLINA, priority 2021, dated 2026).

The subject of one data set is 4T1. Briefly: Syngeneic TNBC tumor model. Type of data set: in vivo, BALB/c mice. As for the experimental part: FIG. 43. 6403 overcomes doxorubicin resistance without major toxicity in a syngeneic mouse model, 4T1. A. Tumor growth in 4T1 model treated with doxorubicin (2 mg/kg, I.V, weekly), 6403 (50 mg/kg, P.O, daily) or their combination. Representative pictures of the tumors shown on the right panel. B. Western blot analysis of LOX in 4T1 tumors from A. C. % body weight change of mice from A. D. Blood cell counts in mice from A at the end of the experiment. 500,000 4T1 cells were injected into MFP of 6-8 weeks old female BALB/c mice. When the tumors reach 100 mm3, mice were randomly distributed to 4 groups and treated with vehicle, doxorubicin (2 mg/kg once a week, I.V.), 6403 (50 mg/kg daily, oral gavage) or the combination of doxorubicin with 6403. Tumor volumes were measured using a caliper every two days, and body weights were also recorded. After 3 weeks of treatment, blood was withdrawn, and blood cells were quantified using VetScan HM5 Hematology Analyzer.

Another data set is described as follows: PK analysis. Type of data set: in vivo, BALB/c mice. Particulars: mice, orally 50 mg/kg, n=3. On the procedure: PK profiles of Lead LOX inhibitor, 6403 was tested in BALB/c mice. Three mice per group were dosed by oral gavage at 50 mg/kg. Serum samples were collected at time points; 0.25, 0.5, 2, 7 and 24 hours. 6403 was diluted with serum from healthy mice as standard and serum levels of LOX inhibitors were quantified by LC-MS/MS methods, compared to the standard readings and followed by calculation of PK parameters, including Cmax, AUC, T1/2 values, clearance (Cl) and oral bioavailability (F %). Cmax represents the maximum concentration of drug that observed in the serum. AUC is a measure of the total exposure of the drug in the serum. T1/2, half-life, is the time required to eliminate half of the drug. Cl is defined as the volume of blood from which all drug is removed per minute.

Take `CC(=O)Nc1ccc(Nc2nc(-c3sc(N)nc3C)cs2)cc1` [compound 6403, N-[4-[[4-(2-amino-4-methyl-thiazol-5-yl)thiazol-2-yl]amino]phenyl]acetamide]: the tumor growth result in the data set on 4T1 (6403 50 mg/kg P.O. daily with doxorubicin 2 mg/kg I.V. weekly, vs either alone) is recorded as “significantly reduced tumor growth”. For the same compound, in the data set on 4T1 (combination, 21-day treatment), the blood counts entry was “no significant change” and the body weights entry is given as “no significant change”. For the same compound, in “PK analysis”, the “Area Under the Curve (AUC)” value is recorded as “high”, the “clearance (Cl)” value is given as “low”, the “half-life (T½)” value is on record as “long” and the “maximum concentration (Cmax)” value is listed as “high”. Also, the “volume of distribution (Vd)” value in the data set “PK analysis” is “high”.
